The results in this text go back to EP4678629A1, “IONIZABLE LIPID MOLECULE, PREPARATION METHOD THEREFOR AND USE THEREOF” (Maxirna (Shanghai) Pharmaceutical Co., Ltd., priority 2023, dated 2024).

Data set [1] in a line: Size and polydispersity index (PDI) of the lipid nanoparticle by dynamic light scattering. The note with it: LNP encapsulating eGFP mRNA, ionizable lipid/DOPE/cholesterol/DMG-PEG2000 50/10/48.25/1.25 mol%, N/P 12. The data set is classed as physicochemical. Summed up:
(§1)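 LNPs were made by microfluidic mixing of ionizable lipid/DOPE/cholesterol/DMG-PEG2000 (50/10/48.25/1.25 mol%) in ethanol with eGFP mRNA in 20 mM citrate pH 6.1, N/P 12, then ultrafiltered into DPBS and 0.2 µm filtered. Size and PDI by DLS at 173° backscatter; encapsulation by Ribogreen.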

Data set [2] can be described thus: Encapsulation efficiency of the lipid nanoparticle (eGFP mRNA) by Ribogreen method. The data set is classed as physicochemical. The note with it: LNP encapsulating eGFP mRNA, ionizable lipid/DOPE/cholesterol/DMG-PEG2000 50/10/48.25/1.25 mol%, N/P 12. Summed up:
as §1

Data set [3] can be described thus: In vitro transfection of cells with eGFP-mRNA lipid nanoparticle (LNP preparation), fluorescence imaging and flow cytometry. To be noted: mouse, dc2.4 cells, 200 ng of mRNA per well, after 24 hours; read-out: Cell viability, %. The data set is classed as cell-based, mouse. Summed up:
(§2)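 Mouse bone marrow-derived DC2.4 dendritic cells seeded at 2 × 10^5 cells/well in DMEM with 10% FBS, transfected with eGFP-mRNA LNPs the next day at 37 °C, 5% CO2. After 24 hours, viability, eGFP-positive rate and mean fluorescence intensity read by fluorescence imaging and flow cytometry.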

The test system of another data set is DC2.4 cells. Described as above. The data set is classed as cell-based, mouse. To be noted: eGFP positivity rate, DC2.4 cells, 200 ng of mRNA per well, after 24 hours. The gist of the method:
as §2

Another data set concerns mice. As to the kind of experiment: In vivo transfection with Fluc-mRNA lipid nanoparticle (LNP preparation), live imaging of fluorescence intensity. The note with it: 0.5 mg/kg. How it is done:
According to the method described in Example II , LNP lipid nanoparticles of Fluc-mRNA (Maxirna FLuc mRNA, 1 mg/mL), SM-102 (CAS number: 2089251-47-6, A.V.T (Shanghai) Pharmaceutical Co., Ltd.), and positive control 1 (US10195156B2, it was prepared according to the method described in the above embodiment, the main difference lay in replacing 2-((3-aminopropyl)amino)ethane-1-ol with 2-((2-aminoethyl)amino)ethane-1-ol, the structure was as shown in FIG. 1) were prepared respectively. Cholesterol (Chol), DSPC, DOPE, and DMG-PEG2000 were purchased from A.V.T (Shanghai) Pharmaceutical Co., Ltd. Mice were randomly selected, and the lipid nanoparticles were injected intravenously and intramuscularly (4 mice per group) at a dosage of 0.5 mg/kg. Tris and Fluc-mRNA were directly injected as controls. After 6 hours, 200 ul of 10 mg/ml D-luciferin potassium salt was respectively injected into each mouse through the tail vein. After 10 minutes, the mice were placed under a live imaging system to observe the total fluorescence intensity of each mouse and take photos for recording. After 24 hours, the mice were placed under the live imaging system to observe the total fluorescence intensity of each mouse and take photos for recording. Table 2: Preparation parameters of each LNP
(§3) LNP lipid nanoparticles of Fluc-mRNA were respectively prepared using the method described in Example II. Mice were randomly selected, and the lipid nanoparticles were injected intramuscularly (2 mice per group) at a dosage of 0.5 mg/kg. Tris was directly injected as a control. After 6 hours, 200 ul of 10 mg/ml D-luciferin potassium salt was respectively injected into each mouse through the tail vein. After 10 minutes, the mice were placed under a live imaging system to observe the total fluorescence intensity of each mouse and take photos for recording. After 24 hours, the mice were placed under the live imaging system to observe the total fluorescence intensity of each mouse and take photos for recording. Table 3: Preparation parameters of each LNP
as §3, with “II .” for “II.”, “(3” for “(2”, “4:” for “3:”

Where [4] appears, read: Fluc-mRNA LNP of Table 2 (DOPE), intramuscular.

Each structure is given as a SMILES string.

Compound `CCCCCCCCCCCOC(=O)CCCN(CCO)CCCN(CCCC(=O)OCCCCCCCCCCC)CCCC(=O)OCCCCCCCCCCC` [Example 12, Diundecyl 4,4'-((3-((2-hydroxyethyl)(4-oxo-4-(undecyloxy)butyl)amino)propyl)azanediyl)dibutanoate] yielded a PDI in data set [1] of 0.22. Also, the Particle size in data set [1] (in nm (unit assumed)) was determined as 88.51. In data set [2], the “Encapsulation rate, %” value is reported as 90.54%. In addition, the viability at 24 h in data set [3] is 81.2%. In the data set on DC2.4 cells, the “Positive rate, %” value came to 97.78%. Moreover, in the data set with mice (setting [4]), the “expression in the chest and abdomen” value is listed as “much lower than that of SM-102”; the “fluorescence intensity, intramuscular injection administration” value is given as “still maintain high fluorescence intensity”. Moreover, the fluorescence intensity entry in the data set on mice (Fluc-mRNA LNP of Table 2 (DOPE), intravenous and intramuscular injection, 6 and 24 hours) is “stronger than that of positive control 1 and comparable to SM-102”. Besides, in the data set with mice (Fluc-mRNA LNP of Table 3 (DSPC), intramuscular, 6 and 24 hours), the whole-body expression result is “even better than SM-102”.
